The values that follow come from patent US20250100977A1, “MERCAPTOPYRIMIDINE COMPOUNDS THAT INHIBIT NONHOMOLOGOUS END JOINING AND METHODS THEREOF” (INDIAN INSTITUTE OF SCIENCE, priority 2021, published 2025).

In general, IC50 refers to the concentration that inhibits the measured activity by half.

In one data set the test system is Molt3. The experiment in a line: Cytotoxicity in Molt3. The class given is cell-based. Conditions: Homo sapiens, MOLT-3; Table 2; read-out: IC50 in cancer cell lines, Molt3. As to the method: (§1) Ligase IV specificity of the compounds of the present invention inside the cells were also determined using Ligase IV knock out (KO) cell line N114 compared to the wild type Nalm6 (Table 2, FIGS. 5C, D, E and F). […] Table 1 showing IC50 of SCR7 derivatives in cancer cell lines Nalm6 and HeLa. IC50 was calculated using GraphPad Prism software from the percentage of viable cells following treatment with the compounds at 48 h. Table 2 showing IC50 of SCR116 and SCR132 in a panel of 16 cancer cell lines.

In a further data set the test system is U118. Briefly: Cytotoxicity in U118. Type of data set: cell-based. Conditions: Table 2; read-out: IC50 in cancer cell lines, U118. On the procedure:
as §1

Data set [1] relates to B cells (CD19+) and T cells (CD3+). The experiment in a line: B and T cells after 28 days SCR116 treatment. Conditions: oral 80, 160 and 320 mg/kg b.wt. The class given is in vivo, swiss albino mice. On the procedure: FIG. 14(A-B) depicts the evaluation of effect on B cells after SCR 116 treatment for 28 days in normal swiss albino mice A. After oral administration of low, medium, and high concentrations of SCR116 (80, 160 and 320 mg/kg b.wt. respectively). B is showing quantitation of the total B cell population (CD19+). (ns: not significant, *p<0.05: **p<0.005), in accordance with an implementation of the present disclosure.
FIG. 15(A-B) depicts the evaluation of the effect on T cells after SCR116 treatment for 28 days in normal swiss albino mice. A. After oral administration of low, medium and high concentrations of SCR116 (80, 160 and 320 mg/kg b.wt. respectively). B. is showing the quantitation of the total T cell population (CD3+). (ns: not significant, *p<0.05: **p<0.005), in accordance with an implementation of the present disclosure.
FIG. 13 depicts the blood parameters analysis of Swiss albino mice after 10 days of dose-ranging study after treating with SCR116 and SCR132. A. RBC (n=3). B. Hemoglobin (n=3). C. MCHC (n=3). D. Total leukocyte count (n=3). E. Platelet count (n=3) (ns: not significant, *p<0.05: **p<0.005).

In data set [2] the test system is Erlich Ascites Carcinoma (EAC) tumor. Briefly: Mice allograft model, Erlich Ascites Carcinoma (EAC). Type of data set: in vivo. As to conditions: for Tumor progression: intraperitoneal; for Tumor progression / Tumor load: alternate days; for Tumor load: oral, 8 doses, pilot. As to the method: The compounds of the present disclosure were evaluated for the anti-cancer efficacy starting from lower concentrations using Mice allograft model. Mice allograft model was developed by injecting Erlich Ascites Carcinoma (EAC) cell lines in the thigh region of the mice followed by treatment with the compounds via intraperitoneal and oral routes on alternate days (FIG. 9C).
The effect of oral dose of the compounds of the present disclosure on mice Erlich Ascites Carcinoma (EAC) and Dalton's Lymphoma (DLA) tumors were also evaluated (FIGS. 10A-F).

The test system of the next data set is HCT116 derived xenograft. The experiment in a line: Mouse xenograft model, HCT116. The class given is in vivo.
The next data set has as its system LN229. The experiment in a line: Cytotoxicity in LN229. The class given is cell-based. Conditions: Homo sapiens, LN-229; Table 2; read-out: IC50 in cancer cell lines, LN229. As to the method: as §1

For the compound `Nc1nc(S)nc(O)c1/N=C/c1ccc([N+](=O)[O-])s1` [Compound 16, (E)-6-amino-2-mercapto-5-(((5-nitrothiophen-2-yl)methylene)amino)pyrimidin-4-ol], the concentration for half-maximal inhibition (IC50) in the data set on Molt3 was 3.1 µM; in the data set on U118 it was 5.6 µM; in the data set with LN229, 5.6 µM. Moreover, the “Production of B cells” value in data set [1] is listed as “no significant changes”. For the same compound, in data set [1], the “Production of T cells” value is “no significant changes”. For the same compound, in data set [2] (10 mg/kg), the Tumor progression entry is on record as “inhibition of tumor progression”. In data set [2] (10 and 30 mg/kg), the Tumor load result was “reduced tumor load”. The Tumor size entry in data set [2] (selected oral dose 10 mg/kg) is “significant reduction in tumor size”. In addition, in the data set on HCT116 derived xenograft, the Tumor volume entry is listed as “significant reduction in tumor volume”.
Consider `Nc1nc(S)nc(O)c1/N=C/c1sc(Cl)nc1Cl` [Compound 32, (E)-6-amino-5-(((2,4-dichlorothiazol-5-yl)methylene)amino)-2-mercaptopyrimidin-4-ol], for which the IC50 in the data set on Molt3 is 0.795 µM; with U118 it was 4.1 µM; in the data set on LN229 it was 7.7 µM. Moreover, in data set [2] (5 mg/kg), the Tumor progression entry is “inhibition of tumor progression”. Moreover, the Tumor load entry in data set [2] (5 and 15 mg/kg) is given as “reduced tumor load”. Moreover, the Tumor size result in data set [2] (selected oral dose 15 mg/kg) is “significant reduction in tumor size”. In the data set with HCT116 derived xenograft, the Tumor volume result was “significant reduction in tumor volume”.
